Measured values: ChEMBL document CHEMBL5244269, “Improving metabolic stability and removing aldehyde oxidase liability in a 5-azaquinazoline series of IRAK4 inhibitors” (Bioorg Med Chem, 2020)

Tests used:
[1] = test system: OCI-Ly10; test: Growth inhibition of human OCILY10 cells at 1.7 uM incubated for 3 days (reference value: -2%); format: functional; conditions: OCI-Ly10, 72 h, time 3 day, read-out: GI
[2] = test system: OCI-Ly10; test: Growth inhibition of human OCILY10 cells at 3.3 uM incubated for 3 days (reference value: -2%); format: functional; conditions: OCI-Ly10, 72 h, time 3 day, read-out: GI
[3] = Plasma protein binding in rat assessed as free fraction by equilibrium dialysis analysis; format: ADME, cell-free
[4] = Plasma protein binding in human assessed as free fraction by equilibrium dialysis analysis; format: ADME, cell-free
[5] = Metabolic stability in rat liver microsomes assessed as intrinsic clearance; format: ADME, Microsome; conditions: read-out: CLH
[6] = Metabolic stability in rat hepatocytes assessed as intrinsic clearance measured per 10^6 cells; format: ADME, cell-based, Hepatocyte; conditions: read-out: CLH
[7] = Metabolic stability in mouse liver microsomes assessed as intrinsic clearance; format: ADME, Microsome; conditions: read-out: CLH
[8] = Metabolic stability in mouse hepatocytes assessed as intrinsic clearance measured per 10^6 cells; format: ADME, cell-based, Hepatocyte; conditions: read-out: CLH
[9] = Metabolic stability in minipig hepatocytes assessed as intrinsic clearance measured per 10^6 cells; format: ADME, cell-based, Sus scrofa domesticus, Hepatocyte; conditions: pig, read-out: CLH
[10] = Metabolic stability in monkey liver microsomes assessed as intrinsic clearance; format: ADME, Macaca mulatta, Microsome; conditions: rhesus monkey, read-out: CLH
[11] = Metabolic stability in monkey hepatocytes assessed as intrinsic clearance measured per 10^6 cells; format: ADME, cell-based, Macaca mulatta, Hepatocyte; conditions: rhesus monkey, read-out: CLH
[12] = Terminal half life in Han Wistar rat at 1 mg/kg, iv; format: ADME, organism-based; conditions: in vivo, read-out: beta t1/2 (converted)
[13] = Oral bioavailability in Han Wistar rat at 2 mg/kg; format: ADME, organism-based; conditions: in vivo
[14] = Volume of distribution at steady state in CD1 mouse at 1 mg/kg, po or 0.5 mg/kg, iv; format: ADME, organism-based; conditions: in vivo
[15] = Oral bioavailability in CD1 mouse at 1 mg/kg; format: ADME, organism-based; conditions: in vivo
[16] = Clearance in cynomolgus monkey at 1 mg/kg, iv; format: ADME, organism-based, Macaca fascicularis; conditions: in vivo
[17] = Terminal half life in cynomolgus monkey at 1 mg/kg, iv; format: ADME, organism-based, Macaca fascicularis; conditions: in vivo, read-out: beta t1/2 (converted)
[18] = biological target: T1, Interleukin-1 receptor-associated kinase 4 (Homo sapiens) (UniProt Q9NWZ3); test: Inhibition of IRAK4 (unknown origin) at 0.1 uM relative to control
T1 sequence (whole entry): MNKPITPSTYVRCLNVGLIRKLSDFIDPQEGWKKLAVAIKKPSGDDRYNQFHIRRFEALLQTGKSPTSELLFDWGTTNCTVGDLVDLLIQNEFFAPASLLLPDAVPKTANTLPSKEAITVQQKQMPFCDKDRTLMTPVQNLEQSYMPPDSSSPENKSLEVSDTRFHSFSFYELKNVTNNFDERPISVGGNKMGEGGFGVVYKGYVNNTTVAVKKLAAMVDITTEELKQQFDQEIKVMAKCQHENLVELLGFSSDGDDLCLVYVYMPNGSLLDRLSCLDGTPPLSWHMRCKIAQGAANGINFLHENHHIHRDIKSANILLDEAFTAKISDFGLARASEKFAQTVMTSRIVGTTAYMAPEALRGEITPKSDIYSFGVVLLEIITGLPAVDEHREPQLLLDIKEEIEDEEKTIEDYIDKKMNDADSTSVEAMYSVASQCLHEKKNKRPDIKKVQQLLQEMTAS

[19] = biological target: T2, Phosphatidylinositol 4,5-bisphosphate 3-kinase catalytic subunit delta isoform (Homo sapiens) (UniProt O00329); test: Inhibition of PI3Kdelta (unknown origin) at 0.1 uM relative to control
T2 sequence (whole entry): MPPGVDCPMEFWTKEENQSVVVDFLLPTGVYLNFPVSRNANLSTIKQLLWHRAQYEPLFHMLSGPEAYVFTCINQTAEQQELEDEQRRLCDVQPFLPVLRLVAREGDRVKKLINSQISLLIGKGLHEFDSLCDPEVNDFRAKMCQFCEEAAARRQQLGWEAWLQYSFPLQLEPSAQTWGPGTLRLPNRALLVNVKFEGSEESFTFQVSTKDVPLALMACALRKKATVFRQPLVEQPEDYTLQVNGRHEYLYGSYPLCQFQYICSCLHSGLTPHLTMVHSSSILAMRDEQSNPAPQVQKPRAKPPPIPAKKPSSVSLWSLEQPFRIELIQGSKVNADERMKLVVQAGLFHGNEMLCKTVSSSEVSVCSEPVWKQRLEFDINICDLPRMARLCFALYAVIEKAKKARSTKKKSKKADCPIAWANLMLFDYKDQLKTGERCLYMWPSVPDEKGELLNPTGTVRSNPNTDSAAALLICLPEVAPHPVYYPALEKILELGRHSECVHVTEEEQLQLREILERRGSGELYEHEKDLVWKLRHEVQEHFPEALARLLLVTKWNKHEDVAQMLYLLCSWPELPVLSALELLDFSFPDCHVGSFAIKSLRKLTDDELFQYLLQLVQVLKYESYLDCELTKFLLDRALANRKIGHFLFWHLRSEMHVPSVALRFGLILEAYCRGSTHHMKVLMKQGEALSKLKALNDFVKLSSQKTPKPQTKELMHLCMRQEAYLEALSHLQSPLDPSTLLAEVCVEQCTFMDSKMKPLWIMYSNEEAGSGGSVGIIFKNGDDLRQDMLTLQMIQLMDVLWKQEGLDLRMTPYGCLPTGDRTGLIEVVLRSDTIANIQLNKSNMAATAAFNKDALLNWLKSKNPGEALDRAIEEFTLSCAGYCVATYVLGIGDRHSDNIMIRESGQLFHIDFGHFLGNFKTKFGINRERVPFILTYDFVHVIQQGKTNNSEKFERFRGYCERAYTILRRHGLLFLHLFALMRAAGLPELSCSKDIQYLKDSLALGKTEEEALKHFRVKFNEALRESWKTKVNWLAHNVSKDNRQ

[20] = Metabolic stability in human liver microsomes assessed as half life; format: ADME, Microsome
[21] = Metabolic stability in human hepatocytes assessed as half life; format: ADME, cell-based, Hepatocyte
[22] = Oral bioavailability in rat at 1 mg/kg; format: ADME, organism-based; conditions: in vivo
[23] = test system: SUD4; test: Growth inhibition of human SU-DHL-4 cells at 3.3 uM incubated for 3 days (reference value: 2%); format: functional; conditions: SU-DHL-4, 72 h, time 3 day, read-out: GI
[24] = test system: SUD4; test: Growth inhibition of human SU-DHL-4 cells at 0.17 uM incubated for 3 days (reference value: 2%); format: functional; conditions: SU-DHL-4, 72 h, time 3 day, read-out: GI
[25] = Oral bioavailability in mouse at 1 mg/kg; format: ADME, organism-based; conditions: in vivo

Q: With `CC[C@@H]1[C@H](F)C(=O)N[C@@H]1COc1nccc2cc(C(N)=O)c(OC)cc12` [ZIMLOVISERTIB] as the compound, how does the inhibition of growth at 1.7 µM [1] read?
A: Its inhibition of growth at 1.7 µM is 10%.

Q: What about the inhibition of growth at 3.3 µM [2] of the same compound?
A: Its inhibition of growth at 3.3 µM is 20%.

Q: For `Cc1ncc(-c2nc3c(OC4(C)CC4)nc(Nc4cnn(C5CCN(C)CC5)c4)nc3cc2F)cn1`, which fraction unbound [3] is on record?
A: Its fraction unbound is 0.21.

Q: What about the fraction unbound [4] of the same compound?
A: The fraction unbound was 0.21.

Q: And the microsomal CLint [5]?
A: The microsomal CLint was 16 µL/min/mg.

Q: And the hepatocyte CLint [6]?
A: Its hepatocyte CLint is 5.6 µL/min/1e6 cells.

Q: What about the microsomal CLint [7] of the same compound?
A: Its microsomal CLint is 13 µL/min/mg.

Q: And the hepatocyte CLint [8]?
A: Its hepatocyte CLint is 11 µL/min/1e6 cells.

Q: What about the hepatocyte CLint [9] of the same compound?
A: Its hepatocyte CLint is 8.2 µL/min/1e6 cells.

Q: What about the microsomal CLint [10] of the same compound?
A: The microsomal CLint was 35 µL/min/mg.

Q: And the hepatocyte CLint [11]?
A: The hepatocyte CLint was 4.7 µL/min/1e6 cells.

Q: What about the half-life [12] of the same compound?
A: The half-life was 5.2 h.

Q: What about the bioavailability [13] of the same compound?
A: Its bioavailability is 55%.

Q: And the Vdss [14]?
A: The Vdss was 4.1 L/kg.

Q: What about the bioavailability [15] of the same compound?
A: Its bioavailability is 66%.

Q: And the clearance [16]?
A: The clearance was 68 mL/min/kg.

Q: What about the half-life [17] of the same compound?
A: Its half-life is 1.4 h.

Q: What about the inhibition [18] of the same compound?
A: Its inhibition is 102%.

Q: And the inhibition [19]?
A: The inhibition was 61%.

Q: And the half-life [20]?
A: Its half-life is 3 h.

Q: What about the half-life [21] of the same compound?
A: Its half-life is 30 h.

Q: Which bioavailability [22] does the source give for `Cc1ncc(-c2nc3c(NC(C)C)nc(Nc4cnn(C5CC6(C5)CN(C)C6)c4)nc3cc2F)cn1` here?
A: The bioavailability was ≤ 10%.

Q: What about the inhibition of growth at 3.3 µM [23] of the same compound?
A: The inhibition of growth at 3.3 µM was 4%.

Q: What about the inhibition of growth at 0.17 µM [24] of the same compound?
A: Its inhibition of growth at 0.17 µM is 2%.

Q: And the bioavailability [25]?
A: The bioavailability was ≤ 10%.
